Test results from article PMC6801819, “Exogenous Iron Increases Fasciocidal Activity and Hepatocellular Toxicity of the Synthetic Endoperoxides OZ78 and MT04” (International Journal of Molecular Sciences, 2019).
Where two headings read alike, the source gives them in different places.

What was measured:
mice = details: cited from earlier work
[1] = Drug solutions in cell culture medium; assay type: physicochemical; details: from DMSO stock
Procedure: Stock solutions of the drugs tested were prepared in DMSO 100% (v/v). […] LC-MS measurements confirmed the stability of the compounds (data not shown). Treatments with AS, MT04, or OZ78 (100 or 500 µM) were performed either alone or in combination with 8% (v/v) hemin or FeCl2 solution for 24 h. The final iron concentration used was 122 µM (stock 1.5 mM) based on previous in vitro studies with F. hepatica.

F. hepatica = tested on: F. hepatica; parameters: method as in PMID 21316331; details: 50 µg/mL; cited from earlier work
[2] = parameters: method as in PMID 15318224; details: cited from earlier work

C[C@H]1[C@H](OC(=O)CCC(=O)O)O[C@@H]2O[C@@]3(C)CC[C@H]4[C@H](C)CC[C@@H]1[C@@]24OO3 [AS, artesunate, reference compound]
LD50 (mice; single intramuscular administration): 475 mg/kg
LD50 (mice; single intravenous administration): 520 mg/kg

O=C(O)CC1CCC2(CC1)OOC1(OO2)C2CC3CC(C2)CC1C3 (stereo not shown) [MT04]
behaviour of drug solutions in medium [1]: tend to precipitate
activity against the liver fluke F. hepatica (F. hepatica): have activity

O=C(O)C[C@H]1CC[C@]2(CC1)OOC1(O2)C2CC3CC(C2)CC1C3 (stereo partly shown) [OZ78]
behaviour of drug solutions in medium [1]: tend to precipitate
mutagenic potential [2]: no mutagenic potential
activity against the liver fluke F. hepatica (F. hepatica): have activity
